Assay results: US5612319A, “Postexposure prevention of HIV infection or seroconversion” (Medivir AB, priority 1994, dated 1997)
≈ marks a conversion by molar mass, not a printed value.

Tests used:
SIV [1] = conditions: administered from 8 hours prior to virus inoculation; cited from earlier work
SIV [2] = conditions: prophylactically, i.e. pre-exposure administered; cited from earlier work
[3] = system: lentivirus infections with HIV or SIV; conditions: administered prophylactically, prior to exposure to HIV or SIV; cited from earlier work
HIV [4] = conditions: rapid and sustained postexposure administration of large doses; cited from earlier work
HIV [5] = conditions: HIV-infected individuals; cited from earlier work
HIV-1, HIV-2 or SIV = conditions: until shortly after "treatment" is concluded; cited from earlier work
[6] = In vivo simian experiments, short term toxicity; conditions: 30 mg/kg/day
SIV [7] = test: Postexposure prevention of SIV infection in macaque monkeys (Example 2, Table 1); type: in vivo; conditions: for Detected during 30 days post virus inoculation: SIV Ag / Detected during 30 days post virus inoculation: SIV-2 / SIV antibody detected during 30 days post inoculation: 10 mg/kg s.c. three times per day
Experimental: Inoculation: The control and test animals, 2 year old macaque monkeys were inoculated […] with either a moderate (10 monkey infectious doses MID50, as determined by Bottiger et al Antiviral Chemistry and Chemotherapy 1992;3:269-271) or a high (100 MID50) dose preparation of SIV in phosphate buffer, as listed in Table 1 below.
One or three hours after i.v. inoculation with SIV, paired test animals were injected subcutaneously with 10 mg/kg of the preparation of Example 1, repeated three times per day for 1 day or 3 days as listed in table 1. Blood samples were extracted from the test and control animals on days 0, 17, 23 and 30 for determination of SIV antibody, SIV p26 antigen and presence of infective virus. The methods have been described by Bottiger et al, AIDS Res Hum Retroviruses 1992;7:1235-1238.

[8] = Cell culture tolerance in MT4 cells; type: cell-based, human; conditions: human; cell culture, MT4 cells; read-out: ID50 in MT4 cells
MT4 cells = test: Cell culture tolerance in MT4 cells; type: cell-based, human; conditions: cell culture results
[9] = 10 MID50, treatment start 1 hour post inoculation, duration 1 day, monkeys 45, 46
[10] = 10 MID50, treatment start 1 hour post inoculation, duration 3 days, monkeys 48, 49
[11] = 10 MID50, treatment start 3 hours post inoculation, duration 3 days, monkeys 54, 57
[12] = 100 MID50, treatment start 1 hour post inoculation, duration 3 days, monkeys 53, 58

SMILES: Cc1cn([C@H]2C[C@H](F)[C@@H](CO)O2)c(=O)[nH]c1=O [FLT, 3'-fluorothymidine]
- protection against SIV (SIV [1]): may provide some protection against SIV

SMILES: O=C(O)P(=O)(O)O [PFA]
- prevention of infection with SIV (SIV [2]): inability to prevent infection with SIV

SMILES: Nc1ccn([C@H]2CC[C@@H](CO)O2)c(=O)n1 [ddC]
- prevention of infection with SIV (SIV [2]): inability to prevent infection with SIV

SMILES: Cc1cn([C@H]2C=C[C@@H](CO)O2)c(=O)[nH]c1=O [d4T]
- prevention of infection with SIV (SIV [2]): inability to prevent infection with SIV

SMILES: Cc1cn([C@H]2C[C@H](N=[N+]=[N-])[C@@H](CO)O2)c(=O)[nH]c1=O [AZT, zidovudine]
- effect on pattern of lentivirus infections [3]: may alter the pattern of lentivirus infections
- published accounts of seroconversion after accidental exposure to HIV (HIV [4]): 13 published accounts
- suppression of AIDS development or reducing viral loads (HIV [5]): clinically significant action
- delay of seroconversion (HIV-1, HIV-2 or SIV): at most appear to delay seroconversion
- prevention of infection with SIV (SIV [2]): inability to prevent infection with SIV

SMILES: Nc1ccn([C@H]2C[C@H](CO)[C@@H](CO)O2)c(=O)n1 [Example 1, 1-[2',3'-dideoxy-3'-C-(hydroxymethyl)-β-D-erythro-pentofuranosyl]-cytosine]
- toxicity short term in simian experiments [6]: no detectable toxicity
- Detected during 30 days post virus inoculation: SIV Ag (SIV [7]; [9]): -
- Detected during 30 days post virus inoculation: SIV-2 (SIV [7]; [9]): -
- SIV antibody detected during 30 days post inoculation (SIV [7]; [9]): -
- Detected during 30 days post virus inoculation: SIV Ag (SIV [7]; [10]): -
- Detected during 30 days post virus inoculation: SIV-2 (SIV [7]; [10]): -
- SIV antibody detected during 30 days post inoculation (SIV [7]; [10]): -
- Detected during 30 days post virus inoculation: SIV Ag (SIV [7]; [11]): -
- Detected during 30 days post virus inoculation: SIV-2 (SIV [7]; [11]): -
- SIV antibody detected during 30 days post inoculation (SIV [7]; [11]): -
- Detected during 30 days post virus inoculation: SIV Ag (SIV [7]; [12]): -
- Detected during 30 days post virus inoculation: SIV-2 (SIV [7]; [12]): -
- SIV antibody detected during 30 days post inoculation (SIV [7]; [12]): -
- protection from 100 infectious doses of SIV (SIV [7]; 3 days treatment, 100 infectious doses, animals 53 and 58): protected the test animals from the very high dose of 100 infectious doses of SIV
- prevention of infection establishing itself in the test animals (SIV [7]; all test animals, viral antigen, antibody or virus culture in blood): prevented the infection establishing itself in the test animals
- SIV antibody or SIV antigen in test animals (SIV [7]; each test animal, 30 day period monitored): free from detectable SIV antibody or SIV antigen
- infectious virus cultivated from blood samples (SIV [7]; each test animal, day 30): infectious virus could not be cultivated
- protection from 10 infectious doses of SIV (SIV [7]; single day of treatment, 10 infectious doses): protected the test animals from 10 infectious doses of SIV
- CC50 [8]: ~45 µg/mL (≈ 187 µM)
- tolerance by human cells (MT4 cells): generally well tolerated
